Reference: patent US9670250B2, “Alpha-helical peptidomimetic inhibitors and methods using same” (The Trustees of the University of Pennsylvania, priority 2012, dated 2017)
Starred links: 1 amine or outer side, 2 acyl side, 3 side chain; linkers in the order of their positions; H or OH if unused. Positions of bridges follow the written chain, without caps; N, C: chain ends. Residues, ends and D or L forms follow the SMILES beside them. mXylylene = c1cc(C[*:1])cc(C[*:2])c1

Assays:
Cathepsin L = Cathepsin L (Homo sapiens, UniProt P07711); test: in vitro fluorescence-based protease inhibition assay, cathepsin L; assay type: biochemical
Chain of Cathepsin L (P07711 114-333, species assumed): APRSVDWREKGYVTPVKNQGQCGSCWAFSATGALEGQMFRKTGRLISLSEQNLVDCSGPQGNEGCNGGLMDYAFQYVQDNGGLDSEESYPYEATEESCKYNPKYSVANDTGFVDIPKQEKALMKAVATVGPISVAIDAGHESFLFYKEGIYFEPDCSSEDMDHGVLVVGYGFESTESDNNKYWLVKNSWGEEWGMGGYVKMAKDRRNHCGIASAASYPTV
From the text: (§1) Thus, the present invention includes a series of potent and highly specific α-helical inhibitors for papain family cysteine proteases. […] These short α-helical peptidomimetic inhibitors are modeled after the natural pro-domain sequence but contain a cysteine substitution at specific residues in i,i+4 positions, as shown in FIG. 2B. These cysteine residues are used for stabilization of the helix utilizing an appropriate linker (Muppidi, et al., 2011, Chem Commun (Camb) 47:9396-9398). After synthesis, each inhibitor was tested against its respective protease using an in vitro fluorescence-based assay. For each enzyme, at least one inhibitor was identified that is relatively potent and highly specific for its individual protease. These inhibitors can be modified or otherwise optimized to attain higher potency and selectivity through identification of key interactions between the inhibitor and the active site amino acid residues. Such optimization involves visual examination of the protease crystal structure, and substitution with either non-natural or natural amino acids to exploit possible crucial non-covalent protein ligand interactions, such as hydrogen bond, electrostatic, hydrophobic, and Van der Waals interactions.

Cathepsin K [1] = target: T1, Cathepsin K (Homo sapiens, UniProt P43235); test: in vitro fluorescence-based protease inhibition assay, cathepsin K; assay type: biochemical
T1 sequence (P43235 115-329): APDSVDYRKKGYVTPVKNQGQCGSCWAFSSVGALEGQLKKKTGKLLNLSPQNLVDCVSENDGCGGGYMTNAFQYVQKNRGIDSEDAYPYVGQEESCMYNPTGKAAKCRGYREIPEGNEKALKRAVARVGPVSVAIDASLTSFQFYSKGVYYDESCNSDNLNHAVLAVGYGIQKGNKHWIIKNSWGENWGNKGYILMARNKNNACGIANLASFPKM
From the text: as §1

Cathepsin S [2] = target: T2, Cathepsin S (Homo sapiens, UniProt P25774); test: in vitro fluorescence-based protease inhibition assay, cathepsin S; assay type: biochemical
From the text: as §1
Target sequence in this assay (P25774 115-331, species assumed): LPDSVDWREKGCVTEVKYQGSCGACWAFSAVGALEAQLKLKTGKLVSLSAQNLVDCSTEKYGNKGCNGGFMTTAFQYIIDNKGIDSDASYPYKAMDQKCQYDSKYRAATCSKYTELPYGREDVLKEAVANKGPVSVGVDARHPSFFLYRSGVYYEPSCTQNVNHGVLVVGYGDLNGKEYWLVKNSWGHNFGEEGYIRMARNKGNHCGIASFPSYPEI

Calpain (Calpain-1) = target: T3, Calpain (Calpain-1) (Homo sapiens, UniProt P07384); test: in vitro fluorescence-based protease inhibition assay, calpain; assay type: biochemical
T3 sequence (P07384 1-714): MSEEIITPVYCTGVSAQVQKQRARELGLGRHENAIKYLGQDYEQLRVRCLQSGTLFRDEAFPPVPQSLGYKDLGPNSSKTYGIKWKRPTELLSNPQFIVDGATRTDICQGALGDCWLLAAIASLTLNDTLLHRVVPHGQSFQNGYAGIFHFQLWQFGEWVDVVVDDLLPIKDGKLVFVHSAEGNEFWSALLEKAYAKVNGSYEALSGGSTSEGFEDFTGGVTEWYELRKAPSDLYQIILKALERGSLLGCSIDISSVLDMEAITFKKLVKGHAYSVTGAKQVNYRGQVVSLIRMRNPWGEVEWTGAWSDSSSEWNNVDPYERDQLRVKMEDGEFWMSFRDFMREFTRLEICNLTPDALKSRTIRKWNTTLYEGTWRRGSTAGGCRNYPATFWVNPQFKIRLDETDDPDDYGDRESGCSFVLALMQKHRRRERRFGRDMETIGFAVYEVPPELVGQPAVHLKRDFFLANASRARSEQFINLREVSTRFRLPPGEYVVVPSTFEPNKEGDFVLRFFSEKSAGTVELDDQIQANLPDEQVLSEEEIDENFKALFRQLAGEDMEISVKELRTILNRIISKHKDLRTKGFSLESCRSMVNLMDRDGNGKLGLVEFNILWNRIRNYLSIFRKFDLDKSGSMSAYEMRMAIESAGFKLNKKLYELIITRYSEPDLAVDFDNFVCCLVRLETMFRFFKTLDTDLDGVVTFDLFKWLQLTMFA
T3 sequence (P04632 1-268 partner): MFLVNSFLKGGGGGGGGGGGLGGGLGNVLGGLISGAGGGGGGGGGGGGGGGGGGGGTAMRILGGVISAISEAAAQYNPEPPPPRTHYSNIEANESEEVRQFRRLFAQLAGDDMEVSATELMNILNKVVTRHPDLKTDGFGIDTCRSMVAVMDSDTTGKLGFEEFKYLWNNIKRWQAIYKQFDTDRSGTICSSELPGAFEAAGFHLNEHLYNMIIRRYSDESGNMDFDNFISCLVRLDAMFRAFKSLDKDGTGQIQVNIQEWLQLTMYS
From the text: as §1

Calpain-1 = Calpain-1 (Homo sapiens, UniProt P07384); test: Ki (µM) (Calpain)
From the text: (§2) Table printed on a drawing sheet, FIGURES 2A & 2B
Head of the field: Ki (µM) (Calpain)
(§3) The patent's description of the figure: FIG. 2, comprising FIGS. 2A-2C, illustrate inhibitors of the present invention. FIG. 2A depicts a list of parent and lead cysteine protease inhibitors and their Ki values The bold ‘C’ represents the cysteine linked at the i,i+4 position. […] FIG. 2B is a schematic representation of linked helical peptidomimetics. α,α′-Dibromo-meta-xylene is the i,i+4 linker. FIG. 2C illustrates circular dichroism spectra of unlinked (middle) and linked (right) peptidomimetics (key at left) in 50 mM Tris-HCl buffer (pH 7.5) and 40% trifluoroethanol (TFE). α-Helical stabilization substantially increases helicity in solution.
(§4) First copying reader's note: Bold C residues and underlined sequences mark the linked (stapled) peptides; the meanings of N/A and NT are not printed on the sheet.

Cathepsin S [3] = target: T2, Cathepsin S; test: Ki (µM) (Cathepsin S)
From the text: as §2
Target sequence in this assay (P25774 115-331 limits assumed): as the sequence (P25774 115-331, species assumed) above
Head of the field: Ki (µM) (Cathepsin S)
as §3, §4
Where the first naming reader finds the target: head: Ki (µM) (Cathepsin S)

Cathepsin K [4] = target: Cathepsin K (Homo sapiens, UniProt P43235); test: Ki (µM) (Cathepsin K)
From the text: as §2
Head of the field: Ki (µM) (Cathepsin K)
as §3, §4
Where the first naming reader finds the target: head: Ki (µM) (Cathepsin K)

[5] = Table 3, cathepsin K inhibitors
[6] = Table 2, cathepsin S inhibitors

For TSEEVCSLMCS [SEQ ID NO:16], the “potency on cathepsin L over cathepsin S, in words” value (Cathepsin L) was “much more potent inhibitor of cathepsin L over cathepsin S”, the “effect on cathepsin K (inhibition or activation), in words” value (Cathepsin K [1]) was “did not inhibit” and the “cathepsin S inhibitory activity, in words” value (Cathepsin S [2]) was “increased inhibition”.
TWEWVCSLMCS [SEQ ID NO:23] was tested, and the “specificity for cathepsin S over cathepsin L” value (Cathepsin S [2]) was “twice as specific”.
CSCC[C@H](NC(=O)[C@H](CCCCN)NC(=O)[C@@H]1CSCc2cccc(c2)CSC[C@H](NC(=O)[C@@H](N)CO)C(=O)N[C@@H](CCC(=O)O)C(=O)N[C@@H](CO)C(=O)N[C@@H](C(C)C)C(=O)N1)C(=O)N[C@H](C(=O)NCC(=O)N[C@@H](CC(C)C)C(=O)O)[C@@H](C)O [compound 37] (H-SCESVCKMTGL-OH; linker 2-6 via mXylylene; N-terminus and C-terminus assumed) gave a Ki (Cathepsin L; [5]) greater than 100 µM, a Ki (Cathepsin K [1]; [5]) greater than 100 µM and a Ki (Calpain (Calpain-1); [5]) greater than 100 µM.
CC[C@H](C)[C@H](NC(=O)[C@@H](NC(=O)[C@@H](NC(=O)[C@H](CCC(=O)O)NC(=O)[C@H](CCCNC(=N)N)NC(=O)[C@H](CCCCN)NC(=O)CNC(=O)[C@@H](N)CC(C)C)C(C)C)[C@@H](C)O)C(=O)N1CCC[C@H]1C(=O)N1CCC[C@H]1C(=O)N[C@@H](CCCCN)C(=O)N[C@@H](Cc1ccc(O)cc1)C(=O)N[C@H]1CSCc2cccc(c2)CSC[C@@H](C(=O)O)NC(=O)[C@H](CC(C)C)NC(=O)[C@H](CC(C)C)NC(=O)[C@H](CCC(=O)O)NC1=O [compound 67] (H-LGKREVTIPPKYCELLC-OH; linker 13-17 via mXylylene; N-terminus and C-terminus assumed) was tested, and the Ki (Cathepsin L; Table 4, calpain inhibitors) was greater than 100 µM, the Ki (Cathepsin K [1]; Table 4, calpain inhibitors) was greater than 100 µM and the Ki (Calpain (Calpain-1); Table 4, calpain inhibitors) was 3.6 ± 1.7 µM.
In the case of CC[C@H](C)[C@H](N)C(=O)N1CCC[C@H]1C(=O)N1CCC[C@H]1C(=O)N[C@@H](CCCCN)C(=O)N[C@@H](Cc1ccc(O)cc1)C(=O)N[C@@H](CCCNC(=N)N)C(=O)N[C@@H](CCC(=O)O)C(=O)N[C@@H](CC(C)C)C(=O)N[C@@H](CC(C)C)C(=O)N[C@@H](C)C(=O)O [SEQ ID NO:62, IPPKYRELLA] (H-IPPKYRELLA-OH; N-terminus and C-terminus assumed), the Ki (Calpain-1) is reported as greater than 100 µM.
Molecule CSCC[C@H](NC(=O)[C@H](CC(C)C)NC(=O)[C@H](CO)NC(=O)[C@H](CC(N)=O)NC(=O)[C@H](CCSC)NC(=O)[C@@H](NC(=O)[C@H](CCC(=O)O)NC(=O)[C@H](CCC(=O)O)NC(=O)[C@H](CO)NC(=O)[C@@H](N)[C@@H](C)O)C(C)C)C(=O)N[C@@H](CO)C(=O)N[C@@H](CO)C(=O)O [SEQ ID NO:14, TSEEVMNSLMSS] (H-TSEEVMNSLMSS-OH; N-terminus and C-terminus assumed) has a Ki (Cathepsin S [3]) greater than 100 µM.
CSCC[C@H](NC(=O)[C@H](CC(C)C)NC(=O)[C@H](CO)NC(=O)[C@H](CC(N)=O)NC(=O)[C@H](CCSC)NC(=O)[C@@H](NC(=O)[C@H](CCC(=O)O)NC(=O)[C@H](CCC(=O)O)NC(=O)[C@H](CO)NC(=O)[C@@H](N)[C@@H](C)O)C(C)C)C(=O)N[C@@H](CO)C(=O)N[C@@H](CO)C(=O)O [SEQ ID NO:14, TSEEVMNSLMSS, reference compound] (H-TSEEVMNSLMSS-OH) was tested, and the “cathepsin S inhibitory activity, in words” value (Cathepsin S [2]) was “did not demonstrate any intrinsic inhibitory activity”.
With CSCC[C@H](NC(=O)[C@H](CCCCN)NC(=O)[C@H](CCC(N)=O)NC(=O)[C@@H](NC(=O)[C@@H](NC(=O)[C@H](CCC(=O)O)NC(=O)[C@H](CCC(=O)O)NC(=O)[C@@H](N)CO)C(C)C)C(C)C)C(=O)N[C@H](C(=O)NCC(=O)N[C@@H](CC(C)C)C(=O)O)[C@@H](C)O [SEQ ID NO:32, SEEVVQKMTGL] (H-SEEVVQKMTGL-OH; N-terminus and C-terminus assumed) the Ki (Cathepsin K [4]) was greater than 100 µM.
Molecule CSCC[C@@H]1NC(=O)[C@H](CC(C)C)NC(=O)[C@H](CO)NC(=O)[C@@H](NC(=O)[C@@H](NC(=O)[C@H](Cc2c[nH]c3ccccc23)NC(=O)[C@H](CCC(=O)O)NC(=O)[C@H](CO)NC(=O)[C@@H](N)[C@@H](C)O)C(C)C)CSCc2cccc(c2)CSC[C@@H](C(=O)N[C@@H](CO)C(=O)O)NC1=O [compound 20] (H-TSEWVCSLMCS-OH; linker 6-10 via mXylylene; N-terminus and C-terminus assumed) has a Ki (Cathepsin L; [6]) of 57.1 ± 1.24 µM, a Ki (Cathepsin K [1]; [6]) greater than 100 µM and a Ki (Calpain (Calpain-1); [6]) greater than 100 µM.
